According to the supplement of paper PMC4862054:
Each block holds one molecule with its values, some of them ahead of it.

Key:
CAL-51 [1] = conditions: 72 h
Experimental: (§1)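 Drug sensitivity and resistance testing (DSRT) of breast cancer cell lines in 384-well plates, 5 concentrations in 10-fold dilutions over a compound-specific 10,000-fold range. After 72 h, cytotoxicity was read by CellTox Green fluorescence and viability by CellTiter-Glo luminescence (multiplexed), normalised to DMSO and benzethonium chloride controls. EC50 is the inflection point of the fitted dose-response curve (bottom asymptote free, so it can be relative for partial curves) and is censored at the highest tested concentration. Rows with DSS 0 (no meaningful response) were excluded.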

MDA-MB-468 [2] = conditions: 72 h
Experimental: as §1

CAL-120 [3] = conditions: 72 h
In short: (§2)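 EC50 was fitted from dose-response curves and censored at the highest concentration tested. To build those curves, breast cancer cell lines (20 µl suspension) were seeded into 384-well plates containing compound at 5 concentrations in 10-fold steps over a compound-specific 10,000-fold range and incubated for 72 h. Readouts were CellTox Green fluorescence (485/520 nm) for cell death and then CellTiter-Glo luminescence for viability, with each plate normalised to 0.1 % DMSO and a positive kill control.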

CAL-85-1 [4] = conditions: 72 h
In short: as §2

HCC1143 [5] = conditions: 72 h
In short: as §2

HCC1599 [6] = conditions: 72 h
In short: as §2

MCF-10A = conditions: 72 h
In short: as §2

MDA-MB-453 [7] = conditions: 72 h
In short: as §2

SK-BR-3 [8] = conditions: 72 h
In short: as §2

MDA-MB-231 [9] = conditions: 72 h
Experimental: as §1

MDA-MB-436 [10] = conditions: 72 h
Experimental: as §1

HDQ-P1 [11] = assay: drug sensitivity score (DSS), CellTox Green (DSS (AUC-based score)); higher = stronger drug effect (viability inhibition or cytotoxicity); extreme values may be limits of the assay; conditions: incubation time: 72 h
In short: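 Breast cancer cells were seeded into 384-well plates containing compound at 5 concentrations in 10-fold steps over a compound-specific 10,000-fold range and incubated 72 h. After CellTox Green and CellTiter-Glo readings, each plate was normalised to 0.1 % DMSO and a positive kill control. The drug sensitivity score rests on the area under the fitted dose-response curve.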

CAL-85-1 [12] = conditions: 72 h; remark: listed apart in the source
In short: (§3)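 Each 384-well plate was pre-loaded with compound dissolved in 5 µl medium, received breast cancer cells in 20 µl suspension, and was incubated 72 h. A 2.5 µl addition of CellTiter-Blue for 2 h at 37 °C was followed by a fluorescence read at 560/590 nm. Data were normalised per plate to vehicle and a positive kill control and checked by Z'-factor. EC50 was fitted from the percent-inhibition dose-response curve, censored at the highest concentration, excluding rows with a drug sensitivity score of zero.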

HDQ-P1 [13] = conditions: 72 h
In short: as §3

BT-474 = conditions: 72 h
In short: as §3

BT-549 [14] = conditions: 72 h
In short: as §3

HCC1143 [15] = conditions: 72 h; remark: listed apart in the source
In short: as §3

HCC1599 [16] = conditions: 72 h; remark: listed apart in the source
In short: as §3

HCC1937 [17] = conditions: 72 h
In short: as §3

Hs578T [18] = conditions: 72 h
In short: as §3

SK-BR-3 [19] = conditions: 72 h; remark: listed apart in the source
In short: as §3

CAL-51 [20] = conditions: 72 h; remark: listed apart in the source
In short: as §2

Hs578T [21] = conditions: 72 h; remark: listed apart in the source
In short: as §2

MFM-223 [22] = conditions: 72 h
In short: as §2

MDA-MB-453 [23] = conditions: 72 h; remark: listed apart in the source
In short: as §3

CAL-51 [24] = conditions: 72 h; remark: listed apart in the source
In short: as §3

DU-4475 [25] = conditions: 72 h
In short: as §3

CAL-120 [26] = conditions: 72 h; remark: listed apart in the source
In short: as §3

MDA-MB-231 [27] = conditions: 72 h; remark: listed apart in the source
In short: as §3

MDA-MB-468 [28] = conditions: 72 h; remark: listed apart in the source
In short: as §3

MFM-223 [29] = conditions: 72 h; remark: listed apart in the source
In short: as §3

BT-549 [30] = conditions: 72 h; remark: listed apart in the source
In short: as §2

CAL-148 = conditions: 72 h
In short: as §2

DU-4475 [31] = conditions: 72 h; remark: listed apart in the source
In short: as §2

HCC1937 [32] = conditions: 72 h; remark: listed apart in the source
In short: as §2

MDA-MB-231 [33] = conditions: 72 h; remark: listed apart in the source
In short: as §2

MDA-MB-436 [34] = conditions: 72 h; remark: listed apart in the source
In short: as §2

CAL-120 [35] = conditions: 72 h; remark: listed apart in the source
Experimental: as §1

CAL-85-1 [36] = conditions: 72 h; remark: listed apart in the source
Experimental: as §1

DU-4475 [37] = conditions: 72 h; remark: listed apart in the source
Experimental: as §1

SMILES: C[C@]12CC[C@@H]3c4ccc(OC(=O)N(CCCl)CCCl)cc4CC[C@H]3[C@@H]1CC[C@@H]2O [Estramustine]
EC50, CellTox Green (CAL-51 [1]): 0.131 µM
EC50, CellTox Green (MDA-MB-468 [2]): 4.99 µM

EC50, CellTiter-Glo (HCC1143 [5]): > 10 µM
EC50, CellTiter-Glo (HCC1599 [6]): 1.94 µM
EC50, CellTiter-Glo (MDA-MB-453 [7]): 0.892 µM
EC50, CellTiter-Glo (SK-BR-3 [8]): 1.46 µM
SMILES: C[C@]1(O)C[C@@H](c2nc(-c3ccc4ccc(-c5ccccc5)nc4c3)c3c(N)nccn32)C1 [Linsitinib]
EC50, CellTiter-Glo (CAL-120 [3]): 8.04 µM
EC50, CellTiter-Glo (CAL-85-1 [4]): 3.55 µM
EC50, CellTiter-Glo (MCF-10A): 0.645 µM
EC50, CellTox Green (MDA-MB-231 [9]): > 10 µM
EC50, CellTox Green (MDA-MB-436 [10]): 6 µM
drug sensitivity score (HDQ-P1 [11]): 0

SMILES: CC1(C)CNc2cc(NC(=O)c3cccnc3NCc3ccncc3)ccc21 [Motesanib]
drug sensitivity score (HDQ-P1 [11]): 0

EC50, CellTiter-Blue viability (BT-474): 1.68 µM
EC50, CellTiter-Blue viability (BT-549 [14]): 7.1 µM
EC50, CellTiter-Blue viability (HCC1143 [15]): 0.881 µM
EC50, CellTiter-Blue viability (HCC1599 [16]): 0.204 µM
EC50, CellTiter-Blue viability (HCC1937 [17]): 9.83 µM
EC50, CellTiter-Blue viability (SK-BR-3 [19]): 0.105 µM
SMILES: C[C@]1(O)C[C@@H](c2nc(-c3ccc4ccc(-c5ccccc5)nc4c3)c3c(N)nccn32)C1 [OSI-906]
EC50, CellTiter-Blue viability (CAL-85-1 [12]): 7.72 µM
EC50, CellTiter-Blue viability (HDQ-P1 [13]): 0.278 µM
EC50, CellTiter-Blue viability (Hs578T [18]): 1.91 µM

EC50, CellTiter-Glo (SK-BR-3 [8]): 2.24 µM
SMILES: CC(=O)c1c(C)c2cnc(Nc3ccc(N4CCNCC4)cn3)nc2n(C2CCCC2)c1=O [Palbociclib]
EC50, CellTiter-Glo (CAL-120 [3]): 0.409 µM
EC50, CellTiter-Glo (CAL-51 [20]): > 10 µM
EC50, CellTiter-Glo (Hs578T [21]): > 10 µM
EC50, CellTiter-Glo (MCF-10A): 1.02 µM
EC50, CellTiter-Glo (MFM-223 [22]): 0.0869 µM
drug sensitivity score (HDQ-P1 [11]): 0

EC50, CellTiter-Blue viability (MDA-MB-453 [23]): 38.3 µM
SMILES: CC[C@@H]1C(=O)OC[C@@H]1Cc1cncn1C [Pilocarpine]
drug sensitivity score (HDQ-P1 [11]): 0

EC50, CellTiter-Blue viability (MDA-MB-453 [23]): 4.26 µM
EC50, CellTiter-Blue viability (HCC1143 [15]): 0.159 µM
EC50, CellTiter-Blue viability (HCC1937 [17]): 1.31 µM
EC50, CellTiter-Blue viability (MDA-MB-231 [27]): 0.0213 µM
EC50, CellTiter-Blue viability (MDA-MB-468 [28]): 7.18 µM
SMILES: COc1cc(F)c(F)c(Nc2ccc(I)cc2F)c1NS(=O)(=O)C1(C[C@H](O)CO)CC1 [RDEA119]
EC50, CellTiter-Blue viability (CAL-51 [24]): 0.196 µM
EC50, CellTiter-Blue viability (CAL-85-1 [12]): 0.557 µM
EC50, CellTiter-Blue viability (DU-4475 [25]): 0.0426 µM
EC50, CellTiter-Blue viability (HDQ-P1 [13]): 0.318 µM
EC50, CellTiter-Blue viability (CAL-120 [26]): 0.585 µM
EC50, CellTiter-Blue viability (Hs578T [18]): 0.081 µM
EC50, CellTiter-Blue viability (MFM-223 [29]): 2.87 µM

EC50, CellTiter-Glo (BT-549 [30]): 2.21 µM
EC50, CellTiter-Glo (HCC1143 [5]): 1.62 µM
EC50, CellTiter-Glo (HCC1937 [32]): 5.05 µM
EC50, CellTiter-Glo (MDA-MB-231 [33]): 0.429 µM
EC50, CellTiter-Glo (MDA-MB-436 [34]): 6.63 µM
SMILES: COc1cc(F)c(F)c(Nc2ccc(I)cc2F)c1NS(=O)(=O)C1(C[C@H](O)CO)CC1 [Refametinib]
EC50, CellTiter-Glo (CAL-120 [3]): 0.315 µM
EC50, CellTiter-Glo (CAL-148): 6.68 µM
EC50, CellTiter-Glo (CAL-85-1 [4]): 0.84 µM
EC50, CellTiter-Glo (DU-4475 [31]): 0.0636 µM
EC50, CellTiter-Glo (Hs578T [21]): 6.15 µM
EC50, CellTiter-Glo (MCF-10A): 0.00698 µM
EC50, CellTiter-Glo (MFM-223 [22]): 6.03 µM
EC50, CellTox Green (CAL-120 [35]): > 10 µM
EC50, CellTox Green (CAL-85-1 [36]): 0.788 µM
EC50, CellTox Green (DU-4475 [37]): 0.11 µM
EC50, CellTox Green (MDA-MB-231 [9]): 0.0232 µM
EC50, CellTox Green (MDA-MB-468 [2]): 2.69 µM
drug sensitivity score (HDQ-P1 [11]): 0
